# Data: ChEMBL document CHEMBL3046683, “Anti-inflammatory and analgesic activities of a new cucurbitacin isolated from Citrullus colocynthis seeds” (2013)
# How the values were obtained:
# Rattus norvegicus [1] = experiment: Anti-inflammatory activity in Wistar Rattus norvegicus (rat) assessed as inhibition of carrageenan-induced paw edema at 0.5 mg/kg, ip administered 30 min prior to carrageenan-challenge measured at 6 hr by plethysmometric analysis relative to control; format: functional; conditions: route intraperitoneal
# Rattus norvegicus [2] = experiment: Anti-inflammatory activity in Wistar Rattus norvegicus (rat) assessed as inhibition of carrageenan-induced paw edema at 0.5 mg/kg, ip administered 30 min prior to carrageenan-challenge measured at 4 hr by plethysmometric analysis relative to control; format: functional; conditions: route intraperitoneal
# Rattus norvegicus [3] = experiment: Anti-inflammatory activity in Wistar Rattus norvegicus (rat) assessed as inhibition of carrageenan-induced paw edema at 0.5 mg/kg, ip administered 30 min prior to carrageenan-challenge measured at 3 hr by plethysmometric analysis relative to control; format: functional; conditions: route intraperitoneal
# Rattus norvegicus [4] = experiment: Anti-inflammatory activity in Wistar Rattus norvegicus (rat) assessed as inhibition of carrageenan-induced paw edema at 0.1 mg/kg, ip administered 30 min prior to carrageenan-challenge measured at 2 hr by plethysmometric analysis relative to control; format: functional; conditions: route intraperitoneal
# Rattus norvegicus [5] = experiment: Anti-inflammatory activity in Wistar Rattus norvegicus (rat) assessed as inhibition of carrageenan-induced paw edema at 0.1 mg/kg, ip administered 30 min prior to carrageenan-challenge measured at 4 hr by plethysmometric analysis relative to control; format: functional; conditions: route intraperitoneal
# Rattus norvegicus [6] = experiment: Anti-inflammatory activity in Wistar Rattus norvegicus (rat) assessed as inhibition of carrageenan-induced paw edema at 0.1 mg/kg, ip administered 30 min prior to carrageenan-challenge measured at 5 hr by plethysmometric analysis relative to control; format: functional; conditions: route intraperitoneal
# Mus musculus [7] = experiment: Analgesic activity in Swiss albino Mus musculus (mouse) assessed as inhibition of acetic acid-induced writhing at 0.05 mg/kg, sc administered 30 min prior to acetic acid challenge measured for 30 min post acetic acid challenge relative to control; format: functional; conditions: route subcutaneous
# Rattus norvegicus [8] = experiment: Anti-inflammatory activity in Wistar Rattus norvegicus (rat) assessed as inhibition of carrageenan-induced paw edema at 0.1 mg/kg, ip administered 30 min prior to carrageenan-challenge measured at 6 hr by plethysmometric analysis relative to control; format: functional; conditions: route intraperitoneal
# Mus musculus [9] = experiment: Analgesic activity in Swiss albino Mus musculus (mouse) assessed as inhibition of phenylbenzoquinone-induced writhing at 0.1 mg/kg, sc administered 30 min prior to acetic acid challenge measured for 30 min post phenylbenzoquinone challenge relative to control; format: functional; conditions: route subcutaneous
# Rattus norvegicus [10] = experiment: Anti-inflammatory activity in ip dosed Wistar Rattus norvegicus (rat) assessed as inhibition of carrageenan-induced paw edema administered 30 min prior to carrageenan-challenge measured at 1 to 6 hr by plethysmometric analysis relative to control; format: functional, organism-based
# Rattus norvegicus [11] = experiment: Anti-inflammatory activity in Wistar Rattus norvegicus (rat) assessed as inhibition of carrageenan-induced paw edema at 0.5 mg/kg, ip administered 30 min prior to carrageenan-challenge measured at 2 hr by plethysmometric analysis relative to control; format: functional; conditions: route intraperitoneal
# Rattus norvegicus [12] = experiment: Anti-inflammatory activity in Wistar Rattus norvegicus (rat) assessed as inhibition of carrageenan-induced paw edema at 0.5 mg/kg, ip administered 30 min prior to carrageenan-challenge measured at 5 hr by plethysmometric analysis relative to control; format: functional; conditions: route intraperitoneal
# Mus musculus [13] = experiment: Analgesic activity in sc dosed Swiss albino Mus musculus (mouse) assessed as inhibition of acetic acid-induced writhing administered 30 min prior to acetic acid challenge measured for 30 min post acetic acid challenge relative to control; format: functional, organism-based
# Rattus norvegicus [14] = experiment: Anti-inflammatory activity in Wistar Rattus norvegicus (rat) assessed as inhibition of carrageenan-induced paw edema at 0.1 mg/kg, ip administered 30 min prior to carrageenan-challenge measured at 3 hr by plethysmometric analysis relative to control; format: functional; conditions: route intraperitoneal
# Mus musculus [15] = experiment: Analgesic activity in Swiss albino Mus musculus (mouse) assessed as inhibition of acetic acid-induced writhing at 0.5 mg/kg, sc administered 30 min prior to acetic acid challenge measured for 30 min post acetic acid challenge relative to control; format: functional; conditions: route subcutaneous
# Mus musculus [16] = experiment: Analgesic activity in Swiss albino Mus musculus (mouse) assessed as inhibition of acetic acid-induced writhing at 0.1 mg/kg, sc administered 30 min prior to acetic acid challenge measured for 30 min post acetic acid challenge relative to control; format: functional; conditions: route subcutaneous
# Rattus norvegicus [17] = experiment: Anti-inflammatory activity in Wistar Rattus norvegicus (rat) assessed as inhibition of carrageenan-induced paw edema at 0.1 mg/kg, ip administered 30 min prior to carrageenan-challenge measured at 1 hr by plethysmometric analysis relative to control; format: functional; conditions: route intraperitoneal
# Mus musculus [18] = experiment: Analgesic activity in Swiss albino Mus musculus (mouse) assessed as inhibition of phenylbenzoquinone-induced writhing at 0.05 mg/kg, sc administered 30 min prior to acetic acid challenge measured for 30 min post phenylbenzoquinone challenge relative to control; format: functional; conditions: route subcutaneous
# Mus musculus [19] = experiment: Analgesic activity in sc dosed Swiss albino Mus musculus (mouse) assessed as inhibition of phenylbenzoquinone-induced writhing administered 30 min prior to acetic acid challenge measured for 30 min post phenylbenzoquinone challenge relative to control; format: functional, organism-based
# Mus musculus [20] = experiment: Analgesic activity in Swiss albino Mus musculus (mouse) assessed as inhibition of phenylbenzoquinone-induced writhing at 0.5 mg/kg, sc administered 30 min prior to acetic acid challenge measured for 30 min post phenylbenzoquinone challenge relative to control; format: functional; conditions: route subcutaneous
# Rattus norvegicus [21] = experiment: Anti-inflammatory activity in Wistar Rattus norvegicus (rat) assessed as inhibition of carrageenan-induced paw edema at 0.5 mg/kg, ip administered 30 min prior to carrageenan-challenge measured at 1 hr by plethysmometric analysis relative to control; format: functional; conditions: route intraperitoneal
# Rattus norvegicus [22] = experiment: Anti-inflammatory activity in Wistar Rattus norvegicus (rat) assessed as inhibition of carrageenan-induced paw edema at 1 mg/kg, ip administered 30 min prior to carrageenan-challenge measured at 2 hr by plethysmometric analysis relative to control; format: functional; conditions: route intraperitoneal
# Rattus norvegicus [23] = experiment: Anti-inflammatory activity in Wistar Rattus norvegicus (rat) assessed as inhibition of carrageenan-induced paw edema at 1 mg/kg, ip administered 30 min prior to carrageenan-challenge measured at 3 hr by plethysmometric analysis relative to control; format: functional; conditions: route intraperitoneal
# Rattus norvegicus [24] = experiment: Anti-inflammatory activity in Wistar Rattus norvegicus (rat) assessed as inhibition of carrageenan-induced paw edema at 1 mg/kg, ip administered 30 min prior to carrageenan-challenge measured at 1 hr by plethysmometric analysis relative to control; format: functional; conditions: route intraperitoneal
# Rattus norvegicus [25] = experiment: Anti-inflammatory activity in Wistar Rattus norvegicus (rat) assessed as inhibition of carrageenan-induced paw edema at 1 mg/kg, ip administered 30 min prior to carrageenan-challenge measured at 5 hr by plethysmometric analysis relative to control; format: functional; conditions: route intraperitoneal
# Rattus norvegicus [26] = experiment: Anti-inflammatory activity in Wistar Rattus norvegicus (rat) assessed as inhibition of carrageenan-induced paw edema at 1 mg/kg, ip administered 30 min prior to carrageenan-challenge measured at 6 hr by plethysmometric analysis relative to control; format: functional; conditions: route intraperitoneal
# Rattus norvegicus [27] = experiment: Anti-inflammatory activity in Wistar Rattus norvegicus (rat) assessed as inhibition of carrageenan-induced paw edema at 1 mg/kg, ip administered 30 min prior to carrageenan-challenge measured at 4 hr by plethysmometric analysis relative to control; format: functional; conditions: route intraperitoneal
# Mus musculus [28] = experiment: Analgesic activity in Swiss albino Mus musculus (mouse) assessed as inhibition of phenylbenzoquinone-induced writhing at 200 mg/kg, sc administered 30 min prior to acetic acid challenge measured for 30 min post phenylbenzoquinone challenge relative to control; format: functional; conditions: route subcutaneous
# Mus musculus [29] = experiment: Analgesic activity in Swiss albino Mus musculus (mouse) assessed as inhibition of acetic acid-induced writhing at 200 mg/kg, sc administered 30 min prior to acetic acid challenge measured for 30 min post acetic acid challenge relative to control; format: functional; conditions: route subcutaneous
structure (smiles),measurement,setting,value
CC(C)(O)/C=C/C(=O)[C@](C)(O)[C@H]1[C@H](O)C[C@@]2(C)[C@@H]3CC=C4[C@@H](C=C(O[C@@H]5O[C@H](CO)[C@@H](O)[C@H](O)[C@H]5O)C(=O)C4(C)C)[C@]3(C)CC[C@]12C,inhibition in vivo at 0.5 mg/kg,Rattus norvegicus [1],84%
same,inhibition in vivo at 0.5 mg/kg,Rattus norvegicus [2],80%
same,inhibition in vivo at 0.5 mg/kg,Rattus norvegicus [3],58%
same,inhibition in vivo at 0.1 mg/kg,Rattus norvegicus [4],13%
same,inhibition in vivo at 0.1 mg/kg,Rattus norvegicus [5],60%
same,inhibition in vivo at 0.1 mg/kg,Rattus norvegicus [6],72%
same,inhibition in vivo at 0.05 mg/kg,Mus musculus [7],86%
same,inhibition in vivo at 0.1 mg/kg,Rattus norvegicus [8],73%
same,inhibition in vivo at 0.1 mg/kg,Mus musculus [9],84%
same,inhibition,Rattus norvegicus [10],Dose-dependent effect
same,inhibition in vivo at 0.5 mg/kg,Rattus norvegicus [11],40%
same,inhibition in vivo at 0.5 mg/kg,Rattus norvegicus [12],84%
same,inhibition,Mus musculus [13],Dose-dependent effect
same,inhibition in vivo at 0.1 mg/kg,Rattus norvegicus [14],40%
same,inhibition in vivo at 0.5 mg/kg,Mus musculus [15],92%
same,inhibition in vivo at 0.1 mg/kg,Mus musculus [16],88%
same,inhibition in vivo at 0.1 mg/kg,Rattus norvegicus [17],12%
same,inhibition in vivo at 0.05 mg/kg,Mus musculus [18],80%
same,inhibition,Mus musculus [19],Dose-dependent effect
same,inhibition in vivo at 0.5 mg/kg,Mus musculus [20],89%
same,inhibition in vivo at 0.5 mg/kg,Rattus norvegicus [21],38%
C[C@@H]1C[C@H]2[C@@H]3CCC4=CC(=O)C=C[C@]4(C)[C@@]3(F)[C@@H](O)C[C@]2(C)[C@@]1(O)C(=O)CO [DEXAMETHASONE],inhibition in vivo at 1 mg/kg,Rattus norvegicus [22],33%
same,inhibition in vivo at 1 mg/kg,Rattus norvegicus [23],45%
same,inhibition in vivo at 1 mg/kg,Rattus norvegicus [24],29%
same,inhibition in vivo at 1 mg/kg,Rattus norvegicus [25],87%
same,inhibition in vivo at 1 mg/kg,Rattus norvegicus [26],89%
same,inhibition in vivo at 1 mg/kg,Rattus norvegicus [27],71%
CC(=O)Oc1ccccc1C(=O)O,inhibition in vivo at 200 mg/kg,Mus musculus [28],60%
same,inhibition in vivo at 200 mg/kg,Mus musculus [29],62%
